Laboratory results published in patent US20050137182A1, “Novel crystalline form of cefdinir” (priority 2003, published 2005).
“And” between values parts separate entries of the source, which are not always exact repeats. Equal values may be shown once. “Also recorded” adds a separate entry of the source. Blank lines part the entries; values can stand above or below the compound they belong to.

Legend:
Type in all cases: physicochemical
[1] = Accelerated storage stability, 40° C. ± 2° C./75% RH ± 5% RH; conditions: for Assay (% w/w, by HPLC OAB), % change / Total RS (% area normalization, by HPLC) / Assay (% w/w, by HPLC OAB): accelerated 40° C. ± 2° C./75% RH ± 5% RH
[2] = Real time storage stability, 25° C. ± 2° C./60% RH ± 5% RH; conditions: for Assay (% w/w, by HPLC OAB), % change / Total RS (% area normalization, by HPLC) / Assay (% w/w, by HPLC OAB): real time 25° C. ± 2° C./60% RH ± 5% RH
[3] = Stress stability study, HPLC purity and assay before and after; conditions: 60° C.±2° C. for 15 days
Method: Stress stability studies of cefdinir crystal B were performed by keeping samples of cefdinir crystal B under the conditions of 60° C.±2° C. for 15 days, and the purity and assay of the samples were determined before and after the stress test by high performance liquid chromatography. […] Table 3 summaries the results of the stress test studies.

[4] = 1 Month, listed as Crystal B Sample 1
[5] = 2 Months, listed as Crystal B Sample 1
[6] = 2 Months, listed as Crystal B Sample 2
[7] = 3 Months, listed as Crystal B Sample 1
[8] = 3 Months, listed as Crystal B Sample 2
[9] = Initial, listed as Crystal B Sample 1
[10] = Initial, listed as Crystal B Sample 2

Assay (% w/w, by HPLC OAB), % change ([1]; 1 Month): −0.5% | Total RS (% area normalization, by HPLC) ([1]; 1 Month): 1.98 % area | Assay (% w/w, by HPLC OAB), % change ([1]; 2 Months): −1.6% | Total RS (% area normalization, by HPLC) ([1]; 2 Months): 2.25 % area | Assay (% w/w, by HPLC OAB), % change ([1]; 3 Months): −1.8% | Total RS (% area normalization, by HPLC) ([1]; 3 Months): 2.06 % area | Assay (% w/w, by HPLC OAB) ([1]; Initial): 96.3 % w/w | Total RS (% area normalization, by HPLC) ([1]; Initial): 0.82 % area | Change in the assay ([1]; after 3 months under accelerated storage conditions): about 1.8% | Assay (% w/w, by HPLC OAB), % change ([2]; 3 Months): −0.2% | Total RS (% area normalization, by HPLC) ([2]; 3 Months): 1.18 % area | Stability under normal storage conditions compared with the other crystal form (in words) ([2]; 25° C.±2° C./60% RH±5% RH, 3 months): as stable as crystal B | Assay (% w/w, by HPLC OAB) ([2]; Initial): 96.3 % w/w | Total RS (% area normalization, by HPLC) ([2]; Initial): 0.82 % area
Structure (SMILES): C=CC1=C(C(=O)O)N2C(=O)[C@@H](NC(=O)/C(=N\O)c3csc(N)n3)[C@H]2SC1 [Cefdinir Crystal A, 7β-[(Z)-2-(2-amino-4-thiazolyl)-2-hydroxyiminoacetamido]-3-vinyl-3-cephem-4-carboxylic acid, reference compound]

Assay (by HPLC on anhydrous basis, % change) [3]: 0% | Degradation in stress test (in words) [3]: did not degrade | Purity (by HPLC, % change) [3]: −0.21% and −0.33% | Assay (% w/w, by HPLC OAB), % change [1, 4]: 0.0% | Total RS (% area normalization, by HPLC) [1, 4]: 0.72 % area | Total RS (% area normalization, by HPLC) ([1]; 1 Month, listed as Crystal B Sample 2): 0.70 % area | Assay (% w/w, by HPLC OAB), % change [1, 5]: 0.0% | Total RS (% area normalization, by HPLC) [1, 5]: 1.10 % area | Assay (% w/w, by HPLC OAB), % change [1, 6]: 0.0% | Total RS (% area normalization, by HPLC) [1, 6]: 0.92 % area | Assay (% w/w, by HPLC OAB), % change [1, 7]: −0.1% | Total RS (% area normalization, by HPLC) [1, 7]: 0.90 % area | Assay (% w/w, by HPLC OAB), % change [1, 8]: −0.2% | Total RS (% area normalization, by HPLC) [1, 8]: 1.08 % area | Assay (% w/w, by HPLC OAB) [1, 9]: 99.9 % w/w | Total RS (% area normalization, by HPLC) [1, 9]: 0.64 % area | Assay (% w/w, by HPLC OAB) [1, 10]: 99.4 % w/w | Total RS (% area normalization, by HPLC) [1, 10]: 0.59 % area | Amount of compound that degrades ([1]; over a period of at least 3 months under accelerated storage conditions): ≤ 0.5% | Assay (% w/w, by HPLC OAB), % change [2, 7]: 0.0% | Total RS (% area normalization, by HPLC) [2, 7]: 0.53 % area | Assay (% w/w, by HPLC OAB), % change [2, 8]: 0.0% | Total RS (% area normalization, by HPLC) [2, 8]: 0.61 % area | Assay (% w/w, by HPLC OAB) [2, 9]: 99.9 % w/w | Total RS (% area normalization, by HPLC) [2, 9]: 0.64 % area | Assay (% w/w, by HPLC OAB) [2, 10]: 99.4 % w/w | Total RS (% area normalization, by HPLC) [2, 10]: 0.59 % area
Structure (SMILES): C=CC1=C(C(=O)O)N2C(=O)[C@@H](NC(=O)/C(=N\O)c3csc(N)n3)[C@H]2SC1 [Cefdinir Crystal B, 7β-[(Z)-2-(2-amino-4-thiazolyl)-2-hydroxyiminoacetamido]-3-vinyl-3-cephem-4-carboxylic acid]
Stability under accelerated storage conditions compared with the other crystal form (in words) ([1]; about 40° C., about 75% RH, up to 3 months): increased storage stability; also recorded: superior stability
